In US20230348852A1, “METHODS AND COMPOSITIONS FOR OCULAR CELL THERAPY” (NOVARTIS AG, priority 2020, published 2023):

Experiments:
human limbal stem cells = assay: Human limbal stem cell population expansion and measurement (expansion factor, p63alpha-positive cells); assay type: cell-based; conditions: 10 micromolar in XVIVO15 medium, two passages; for Expansion factor: ratio of expanded population to seeded cells; for Percentage of p63a-positive cells: share of Sytox Orange-positive nuclei expressing p63alpha
Method: Cells were cultured at 37° C. in 5% CO2.
For each compound, two sets of cultures were generated. A first set of cultures was fixed in 4% PFA for 20 minutes at room temperature after cells isolated from the cornea had attached to the cell culture dish (typically 24 h after cell plating). A second set of cultures was fixed in 4% PFA for 20 minutes at room temperature after being cultured for two passages. Cells were passaged when they reached 90-100% confluence.
In order to observe that the expanded cell population expressed p63alpha, this was measured by immunohistochemistry as follows. The fixed cell cultures were permeabilized and blocked in a blocking solution of 0.3% Triton X-100 (Sigma-Aldrich) and 3% donkey serum in PBS for 30 minutes. Cells were then labeled with primary antibody in the blocking solution for 12 hours at 4° C. Primary antibody used was p63alpha from Cell Signalling. Samples were washed in PBS three times and donkey-raised secondary antibody Alexa Fluor 488 (Molecular Probes) at 1:500 dilution were applied for 30 minutes at room temperature. Cell nuclei were then labeled in a solution of 0.5 micromolar of Sytox Orange (ThermoFisher) in PBS for 5 minutes at room temperature.
To evaluate the percentage of p63alpha-positive cells, the number of cells labeled by the anti-p63alpha antibody was counted and the total number of cells was determined by counting the number of nuclei stained by Sytox Orange. The proportion of p63alpha-positive cells was then determined by calculating the percentage of Sytox-orange-positive nuclei that also expressed p63alpha.
To evaluate cell expansion ratios, nuclei were counted using a Zeiss LSM 880 confocal microscope. The expansion factor was then determined by calculating the ratio of the expanded population of cells to population of seeded cells.

B2M = assay: sgRNA screening for B2M knockout in LSCs (nucleofection, FACS); assay type: cell-based, human; conditions: Cas9 protein SEQ ID NO: 106, LSCs at passage 3, FACS after around 3 days
Method: Cells were cultured under these conditions for 24-48 hours at 37° C. in 5% CO2.
LSCs were nuclofected with selected gRNAs (Table 6) followed by FACS analysis / MACS separation.
After scraping the cells, the reaction was stopped by using cell culture medium containing 10% Serum and transferred to a falcon tube. After counting cells using Vi-cell 300′000 cells were prepared per reaction by transferring 300′000 cells in single tubes and centrifuged at 1000 rpm for 5 min. The supernatant was aspirated using manually pipetting to avoid cell loss and the cells were resuspended in the Stem cell nucleofector solution II (Lonza, Cat #VPH-5022). Resuspend cells in nucleofector solution immediately before adding the Cas9 RNP:sgRNA mixture. To obtain the nucleofection mixture, 5 µg high concentrated (≥5 µg/µl) Cas9 protein of SEQ ID NO: 106 (volume = 0.78 µl) was mixed with 19.5 µg sgRNA of Table 6 (volume = 12.2 µl) and incubated for 20 min at room temperature. […] The Cas9 protein-guideRNA complex was added to the cell suspension and transferred to the electroporation cuvette immediately. Cells were transfected using the nucelofector device (Lonza, Amaxa Nucleofector II) and program A023. After nucleofection cells were transferred from cuvette to one well of a 24 well synthemax coated plate containing pre-warmed LSC medium including 3 µM LATS compound and 10 µM Rock inhibitor Y-27632 (Nature 1997, vol. 389, pp. 990-994). Incubate LSCs in a 5% CO2 incubator for around 3 days until cells are 90% confluent.
LSCs were treated with TryLE®Express Enzym (ThermoFisher, Cat #12605010) for 15 minutes in 5% CO2 at 37° C. After scraping the cells, the reaction was stopped by using cell culture medium containing 10% Serum and transferred to a falcon tube for a centrifugation step (1000 rpm, 5 minutes). After aspirating the medium cells were resuspended in 200 µl FACS buffer (PBS/10%FBS).
(§1) To analyze the expression of B2M and HLA-ABC, 5 µl APC mouse anti-human β2-microglobulin antibody (Biolegend, Cat#316312) and 20 µl PE mouse anti-human HLA-ABC antibody (BD Bioscience, Cat # 560168) were added to the cell suspension and incubated for 30 minutes on ice.
Cells were washed 3 times after antibody labelling with FACS buffer and resuspended in 200 µl in FACS buffer (depending on the cell number).
FACS data were analyzed using BD FACSDiva software and FlowJo software.

human B2M = assay: CRISPR/Cas9-mediated deletion of B2M in HEK293 (lipofection, FACS); assay type: cell-based; conditions: lipofection of tracrRNA, gRNA and Cas9 mRNA; FACS after 72 h
Method: One day before transfection, 500′000 HEK293cells (ATCC, Manassas, VA) were plated in a 35 mm dish and grown in DMEM/10%FBS. The following day, cells were transfected with a mixture of tracrRNA-gRNA-Cas9 mRNA. A stock of 10 micromolar was prepared resuspending 20 nanomoles of gRNA and 20 nanomoles tracrRNA in 2000 microlitre 10 millimolar Tris buffer pH7.4 each.
The mixture was added drop wise to the culture dish in 2.5 ml DMEM/10%FBS medium. The transfection reagent alone represented the transfection negative control.
After 6 h incubation in 5% CO2 at 37° C. medium was replaced with fresh DMEM/10%FBS medium. After 72 h in a 5% CO2 incubator cells were prepared for FACS analysis. FACS analysis: HEK293 cells were treated with Accutase (ThermoFisher, Cat # A1110501) for 20 minutes in 5% CO2 at 37° C. The reaction was stopped by using cell culture medium containing 10% Serum and transferred to a falcon tube for a centrifugation step (1000 rpm, 5 minutes). After aspirating the medium cells were resuspended in 200 microlitre FACS buffer (PBS/10%FBS).
as §1, with “microlitre” for “µl”, “Cat #316312)” for “Cat#316312)”, “ice. Cells were washed 3 times after antibody labelling with FACS buffer and resuspended in 500 microlitre in FACS buffer.” for “ice.”
Each sample was transferred to one well of a round bottom 96 well plate and analyzed on a BD LSRFortessa X-20 device. FACS data were analyzed using BD FACSDiva software.

Molecule | Expansion factor (human limbal stem cells) | Percentage of p63a-positive cells (human limbal stem cells) [%] | B2M knockout efficiency in LSCs after nucleofection (B2M) [%] | B2M knockout efficiency in HEK293 (human B2M) [%]
CC(C)(Nc1nc(-c2ccncc2Cl)nc2cnccc12)C(F)(F)F [2-(3-chloropyridin-4-yl)-N-(1,1,1-trifluoro-2-methylpropan-2-yl)pyrido[3,4-d]pyrimidin-4-amine] | 961 | 87 |  | 
FC(F)(F)C1CN(c2nc(-c3ccncc3)nc3cnccc23)CCN1 (stereo not drawn) [2-(pyridin-4-yl)-4-(3-(trifluoromethyl)piperazin-1-yl)pyrido[3,4-d]pyrimidine] | 1051 | 90 |  | 
FC(F)(F)C1(Nc2nc(-c3ccncc3)nc3cnccc23)CCC1 [2-(pyridin-4-yl)-N-[1-(trifluoromethyl)cyclobutyl]pyrido[3,4-d]pyrimidin-4-amine] | 1712 | 95 |  | 
CC(C)(CO)Nc1nc(-c2ccncc2)nc2cnccc12 [2-methyl-2-{[2-(pyridin-4-yl)pyrido[3,4-d]pyrimidin-4-yl]amino}propan-1-ol] | 1160 | 89 |  | 
FC(F)(F)C1(Nc2nc(-c3ccncc3)cc3cnccc23)CC1 [3-(pyridin-4-yl)-N-(1-(trifluoromethyl)cyclopropyl)-2,6-naphthyridin-1-amine] | 1241 | 95 |  | 
O[C@H]1CCC[C@@H]1Nc1nc(-c2ccncc2)nc2cnccc12 [(1S,2S)-2-{[2-(pyridin-4-yl)pyrido[3,4-d]pyrimidin-4-yl]amino}cyclopentan-1-ol] | 39 | 6 |  | 
CC(C)(C)Nc1cc(-c2ccncc2)nc2cnccc12 [Example 2, N-(tert-butyl)-2-(pyridin-4-yl)-1,7-naphthyridin-4-amine] | 1717 | 93 |  | 
CC1(Nc2cc(-c3ccncc3)cc3cnccc23)CC1 [N-(1-methylcyclopropyl)-7-(pyridin-4-yl)isoquinolin-5-amine] | 681 | 80 |  | 
CC1CCCC1Nc1nc(-c2ccncc2)nc2cnccc12 (stereo not drawn) [N-(2-methylcyclopentyl)-2-(pyridin-4-yl)pyrido[3,4-d]pyrimidin-4-amine] | 976 | 86 |  | 
CC(C)Nc1nc(-c2ccncc2)nc2cnccc12 [N-(propan-2-yl)-2-(pyridin-4-yl)pyrido[3,4-d]pyrimidin-4-amine] | 1275 | 93 |  | 
c1cc(-c2nc(NC3CCCC3)c3ccncc3n2)ccn1 [N-cyclopentyl-2-(pyridin-4-yl)pyrido[3,4-d]pyrimidin-4-amine] | 1048 | 87 |  | 
CCCNc1nc(-c2c[nH]nc2C(F)(F)F)nc2cnccc12 [N-propyl-2-(3-(trifluoromethyl)-1H-pyrazol-4-yl)pyrido[3,4-d]pyrimidin-4-amine] | 991 | 86 |  | 
CCCNc1nc(-c2ccncc2)nc2cnccc12 [N-propyl-2-(pyridin-4-yl)pyrido[3,4-d]pyrimidin-4-amine] | 1423 | 93 |  | 
5-CR004366: gRNA targeting human B2M; targeting domain SEQ ID NO: 112; sgRNA SEQ ID NO: 163; from Dharmacon (nucleic acid, listed as RNA, chemistry not given here, gRNA targeting human B2M; from Dharmacon) guide: CUGAAUCUUUGGAGUACCUGGUUUUAGAGCUAGAAAUAGCAAGUUAAAAUAAGGCUAGUCCGUUAUCAACUUGAAAAAGUGGCACCGAGUCGGUGCUUUU |  |  | 2 | 33
CR006979: gRNA targeting human B2M; targeting domain SEQ ID NO: 140; sgRNA SEQ ID NO: 177 (nucleic acid, listed as RNA, chemistry not given here) guide: UCCUGAAUUGCUAUGUGUCUGUUUUAGAGCUAGAAAUAGCAAGUUAAAAUAAGGCUAGUCCGUUAUCAACUUGAAAAAGUGGCACCGAGUCGGUGCUUUU |  |  | 2 | 
2-CR004366: gRNA targeting human B2M; targeting domain SEQ ID NO: 109; sgRNA SEQ ID NO: 160; from Dharmacon (nucleic acid, listed as RNA, chemistry not given here, gRNA targeting human B2M; from Dharmacon) guide: CGUGAGUAAACCUGAAUCUUGUUUUAGAGCUAGAAAUAGCAAGUUAAAAUAAGGCUAGUCCGUUAUCAACUUGAAAAAGUGGCACCGAGUCGGUGCUUUU |  |  | 2 | 33
7-HEYJA000003: gRNA targeting human B2M; targeting domain SEQ ID NO: 114; sgRNA SEQ ID NO: 165 (nucleic acid, listed as RNA, chemistry not given here) guide: CUCGCGCUACUCUCUCUUUCGUUUUAGAGCUAGAAAUAGCAAGUUAAAAUAAGGCUAGUCCGUUAUCAACUUGAAAAAGUGGCACCGAGUCGGUGCUUUU |  |  | 8 | 37
10-HEYJA000007: gRNA targeting human B2M; targeting domain SEQ ID NO: 117; sgRNA SEQ ID NO: 168 (nucleic acid, listed as RNA, chemistry not given here) guide: AGUCACAUGGUUCACACGGCGUUUUAGAGCUAGAAAUAGCAAGUUAAAAUAAGGCUAGUCCGUUAUCAACUUGAAAAAGUGGCACCGAGUCGGUGCUUUU |  |  | 1 | 13
3-CR004366: gRNA targeting human B2M; targeting domain SEQ ID NO: 110; sgRNA SEQ ID NO: 161; from Dharmacon (nucleic acid, listed as RNA, chemistry not given here, gRNA targeting human B2M; from Dharmacon) guide: AAGUCAACUUCAAUGUCGGAGUUUUAGAGCUAGAAAUAGCAAGUUAAAAUAAGGCUAGUCCGUUAUCAACUUGAAAAAGUGGCACCGAGUCGGUGCUUUU |  |  | 2 | 12
11-HEYJA000008: gRNA targeting human B2M; targeting domain SEQ ID NO: 118; sgRNA SEQ ID NO: 169 (nucleic acid, listed as RNA, chemistry not given here) guide: CCACCUCUUGAUGGGGCUAGGUUUUAGAGCUAGAAAUAGCAAGUUAAAAUAAGGCUAGUCCGUUAUCAACUUGAAAAAGUGGCACCGAGUCGGUGCUUUU |  |  | 1 | 3
